In BindingDB's records for doi:10.1021/jm00174a017 (Alter, 1991):
pKi: −log10 of the molar value.

Test: Tested for inhibition of [3H]PAF binding to rabbit Platelet activating factor receptor

Row | pKi | Compound
1 | 7.82 | COC(=O)C1C(C)=NC(C)=C(C(=O)OCCSc2ccccc2)C1C (stereo not given)
2 | 5.98 | CCOC(=O)C1C(C)=NC(C)=C(C(=O)OCCSC)C1C (stereo not given)
3 | 5.68 | CC1=NC(C)=C(C(=O)OCCSc2ccccc2)C(C)C1C(=O)OCC1CCCO1 (stereo not given)
4 | 5.99 | CCOC(=O)C1C(C)=NC(C)=C(C(=O)OCCSC)C1CC (stereo not given)

The remaining lines, values behind:

Row | Compound | pKi
5 | CCOC(=O)C1C(C)=NC(C)=C(C(=O)OCCSCC)C1C (stereo not given) | 6.00
6 | COCCOC(=O)C1C(C)=NC(C)=C(C(=O)OCCSC)C1C (stereo not given) | 5.36
7 | CCOC(=O)C1C(C)=NC(C)=C(C(=O)OCCSc2ccccc2)C1C (stereo not given) | 7.16
8 | CCSCCOC(=O)C1=C(C)N=C(C)C(C(=O)OC)C1C (stereo not given) | 6.30
9 | CC1=NC(C)=C(C(=O)OCCSc2ccccc2)C(C)C1C(=O)OC(C)C (stereo not given) | 6.04
10 | COC(=O)C1C(C)=NC(C)=C(C(=O)OCCSC)C1C (stereo not given) | 6.22
